According to PubChem BioAssay AID1963846 (Molecular Pharmacology Branch, DTP, NCI, 2024):
Values joined by “and” are separate entries in the source; they are usually repeats but may differ in a detail not shown here. Equal values may be shown once.

Test system: 454973-116-R2-J3-PDC complex spheroid viability
Assay: Anticancer human tumor 454973-116-R2-J3-PDC patient-derived pancreatic carcinoma cell line growth inhibition [POLQ]
Details: for viability, T/C: stronger effect = lower value
Description: Multicellular complex tumor spheroid response to Polymerase (POL) inhibitors (novobiocin, ART-558, RP6685) in combination with a variety of drugs and investigational agents in selected tumor cell lines
The POL inhibitors (novobiocin, ART-558, and RP6685) were evaluated both individually and in combination with standard of care and investigational anticancer small molecules within a complex spheroid model of solid tumors. . Complex spheroids include a stromal component modeled by human endothelial cells (HUVEC) and fibroblasts modeled by human mesenchymal stem cells (MSCs). The concentration ranges selected for each drug and investigational agent were based upon clinically achievable concentrations if the clinical Cmax of the agent was known.
Compounds. The drugs and investigational agents: novobiocin (NSC847541), ART-558 (NSC835418), RP-6685 (NSC848927), peposertib (NSC802822), ceralasertib (NSC780249), elimusertib (NSC800525), camonsertib (NSC841442), AZD-1390 (NSC803789), olaparib (NSC753686), talazoparib (NSC767125), rucaparib (NSC756644), sotorasib (NSC818433), MRTX-1133 (NSC836407), SN-38 (NSC673596), topotecan (NSC609699), epotoside (NSC141540), doxorubicin (NSC123127), gemcitabine (NSC613327), 5-fluorouracil (NSC19893), paclitaxel (NSC125973), vemurafenib (NSC761431), MSA-2 (NSC828583), SN-011 (NSC837082), adavosertib (NSC754352), prexasertib (NSC758257), carboplatin (NSC241240) and oxaliplatin (NSC266046), were obtained from the National Cancer Institute (NCI) Developmental Therapeutics Program Chemical Repository (21). The FDA-approved anticancer drug set is available from the Developmental Therapeutics Program at https://dtp.cancer.gov/organization/dscb/obtaining/. […] The stock solutions were prepared in dimethyl sulfoxide (DMSO, Sigma-Aldrich, St. Louis, MO, cat. D2650), except for the platinum compounds which were prepared in saline (Quality Biological, Gaithersburg, MD, cat. 114-055-101), at 800-fold the tested concentration and stored at -70 degrees C prior to their use. All drugs and investigational agents were tested over a range starting from a high concentration at or near the clinical Cmax and decreasing in half-log increments. If the clinical Cmax for an agent had not been determined, the highest concentration tested was 10 microM, except for SN-38, which was tested at a high concentration of 1 microM.
Cell Culture. All cells were maintained in an incubator at 37 degrees C and 5% CO2 with 95% humidity. The PDC lines were cultured according to standard operating procedures established by the NCI PDMR (https://pdmr.cancer.gov). Table 3 of the manuscript, lists the cell lines along with the number of the three cell types plated to form the mct-spheroids and media for tumor cell growth. After thawing, all PDC lines, except 997537-175-T-J1-PDC and 415267-285-R-J2-PDC, were cultured in Matrigel-coated flasks prepared with a working solution of 1X Ham's F-12 nutrient mix, without supplementation (Thermo Fisher Scientific, cat. 11765054), 100 U/mL penicillin-streptomycin (Thermo Fisher Scientific, cat. 15140122), and 2.5% Matrigel (Corning Inc., Corning, NY, cat. 354248) for the first three passages. The two PDC lines 997537-175-T-J1-PDC and 415267-285-R-J2-PDC were cultured on uncoated flasks. The 857933-349-R-J2-PDC line was cultured in 6C/Colon 1B media containing advanced DMEM/F-12 (Thermo Fisher Scientific, cat. 12634028), 10 mM HEPES (Thermo Fisher Scientific, cat. 15630080), 1X GlutaMAX supplement (Thermo Fisher Scientific, cat. 35050061), 0.1 mg/mL primocin (InvivoGen, San Diego, CA, cat. ant-pm-2), 10% defined fetal bovine serum, heat inactivated (HyClone Laboratories Inc., Logan, UT, cat. SH30070.03HI), 50% L-WRN conditioned media (ATCC, cat. CRL-3276), 1.25 mM N-Acetyl-L-cysteine (Sigma-Aldrich, cat. A9165), 10 mM nicotinamide (Sigma-Aldrich, cat. N0636), 1X B-27 supplement (Thermo Fisher Scientific, cat. 17504044), 1X N-2 supplement (Thermo Fisher Scientific, cat. […]
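Further: spheroids exposed to drugs for seven days before measurement.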
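Wherever viability, T/C is given: percent viability relative to DMSO vehicle control wells taken as 100%.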

CC1COCCN1c1cc(C2(S(C)(=N)=O)CC2)nc(-c2ccnc3[nH]ccc23)n1 (configuration not stated)
viability, T/C (compound 0.0316 µM): 112% and 105% and 108% | viability, T/C (compound 0.1 µM): 105% and 106% and 102% | viability, T/C (compound 0.316 µM): 108% and 109% and 103% | viability, T/C (compound 1 µM): 100% and 95.8% and 92% | viability, T/C (compound 3.16 µM): 79.7% and 65.6% and 90.4% | viability, T/C (compound 10 µM): 32.3% and 23.4% and 33.7% | IC50 (curve of compound): 6.52 µM and 4.82 µM and 7.12 µM

O=C(c1cc(Cc2n[nH]c(=O)c3ccccc23)ccc1F)N1CCN(C(=O)C2CC2)CC1
viability, T/C (compound 0.0316 µM): 105% and 99.8% and 97.1% | viability, T/C (compound 0.1 µM): 96.5% and 99% and 104% | viability, T/C (compound 0.316 µM): 101% | viability, T/C (compound 1 µM): 91.2% and 104% and 90.5% | viability, T/C (compound 3.16 µM): 104% and 102% and 95.3% | viability, T/C (compound 10 µM): 60.6% and 62.5% and 54.9% | IC50 (curve of compound): > 10 µM

COc1cccc2c1C(=O)c1c(O)c3c(c(O)c1C2=O)CC(O)(C(=O)CO)CC3OC1CC(N)C(O)C(C)O1 (configuration not stated) + Nc1ccc(C#CCN(C(=O)Cc2ncc(C(F)(F)F)cc2C(F)(F)F)c2ccc(F)cc2)nn1
IC50 (curve of first compound, second compound 0.0316 µM): 0.0374 µM | IC50 (curve of first compound, second compound 0.1 µM): 0.036 µM | IC50 (curve of first compound, second compound 0.316 µM): < 0.0316 µM | IC50 (curve of first compound, second compound 1 µM): < 0.0316 µM | IC50 (curve of first compound, second compound 3.16 µM): 0.0322 µM | IC50 (curve of first compound, second compound 10 µM): < 0.0316 µM | viability, T/C (second compound 0.0316 µM, first compound 0.0316 µM): 55.6% | viability, T/C (second compound 0.0316 µM, first compound 0.1 µM): 19.3% | viability, T/C (second compound 0.0316 µM, first compound 0.316 µM): 15.8% | viability, T/C (second compound 0.0316 µM, first compound 1 µM): 5.05% | viability, T/C (second compound 0.0316 µM, first compound 3.16 µM): 0.67% | viability, T/C (second compound 0.0316 µM, first compound 10 µM): 0.12% | viability, T/C (second compound 0.1 µM, first compound 0.0316 µM): 54.4% | viability, T/C (second compound 0.1 µM, first compound 0.1 µM): 20.7% | viability, T/C (second compound 0.1 µM, first compound 0.316 µM): 14.5% | viability, T/C (second compound 0.1 µM, first compound 1 µM): 6.06% | viability, T/C (second compound 0.1 µM, first compound 3.16 µM): 1.06% | viability, T/C (second compound 0.1 µM, first compound 10 µM): 0.39% | viability, T/C (second compound 0.316 µM, first compound 0.0316 µM): 50.5% | viability, T/C (second compound 0.316 µM, first compound 0.1 µM): 20.4% | viability, T/C (second compound 0.316 µM, first compound 0.316 µM): 11.7% | viability, T/C (second compound 0.316 µM, first compound 1 µM): 4.87% | viability, T/C (second compound 0.316 µM, first compound 3.16 µM): 0.69% | viability, T/C (second compound 0.316 µM, first compound 10 µM): 0.21% | viability, T/C (second compound 1 µM, first compound 0.0316 µM): 49.6% | viability, T/C (second compound 1 µM, first compound 0.1 µM): 19.9% | viability, T/C (second compound 1 µM, first compound 0.316 µM): 16.4% | viability, T/C (second compound 1 µM, first compound 1 µM): 4.25% | viability, T/C (second compound 1 µM, first compound 3.16 µM): 0.36% | viability, T/C (second compound 1 µM, first compound 10 µM): 0.66% | viability, T/C (second compound 3.16 µM, first compound 0.0316 µM): 51.6% | viability, T/C (second compound 3.16 µM, first compound 0.1 µM): 17.8% | viability, T/C (second compound 3.16 µM, first compound 0.316 µM): 14.6% | viability, T/C (second compound 3.16 µM, first compound 1 µM): 3.6% | viability, T/C (second compound 3.16 µM, first compound 3.16 µM): 0.55% | viability, T/C (second compound 3.16 µM, first compound 10 µM): 0.26% | viability, T/C (second compound 10 µM, first compound 0.0316 µM): 48.2% | viability, T/C (second compound 10 µM, first compound 0.1 µM): 12.7% | viability, T/C (second compound 10 µM, first compound 0.316 µM): 10.2% | viability, T/C (second compound 10 µM, first compound 1 µM): 3.36% | viability, T/C (second compound 10 µM, first compound 3.16 µM): 0.54% | viability, T/C (second compound 10 µM, first compound 10 µM): 0.27%

O=C(Nc1ccc(O)c(NS(=O)(=O)c2ccc(F)cc2)c1)c1ccc(-c2ccccc2)cc1
viability, T/C (compound 0.0316 µM): 103% and 108% and 98.8% | viability, T/C (compound 0.1 µM): 104% and 96.5% and 103% | viability, T/C (compound 0.316 µM): 100% and 110% and 106% | viability, T/C (compound 1 µM): 94% and 101% and 106% | viability, T/C (compound 3.16 µM): 96.4% and 116% and 115% | viability, T/C (compound 10 µM): 87.7% and 89.7% and 98% | IC50 (curve of compound): > 10 µM

COc1ccc([C@@H](O)c2cc(-c3ncnc4cc(N5CCOCC5)ccc34)c(F)cc2Cl)nn1
viability, T/C (compound 0.0316 µM): 110% and 102% and 101% | viability, T/C (compound 0.1 µM): 102% and 96.8% and 98.7% | viability, T/C (compound 0.316 µM): 104% and 102% and 94.2% | viability, T/C (compound 1 µM): 92.9% and 83.8% and 93% | viability, T/C (compound 3.16 µM): 76% and 75.2% and 80.2% | viability, T/C (compound 10 µM): 52.7% and 56.2% and 53.7% | IC50 (curve of compound): > 10 µM

COC1C(OC(N)=O)C(O)C(Oc2ccc3c(O)c(NC(=O)c4ccc(O)c(CC=C(C)C)c4)c(=O)oc3c2C)OC1(C)C (configuration not stated)
viability, T/C (compound 0.0316 µM): 106% [middle of 13 runs] | viability, T/C (compound 0.1 µM): 111% [middle of 13 runs] | viability, T/C (compound 0.316 µM): 105% [middle of 13 runs] | viability, T/C (compound 1 µM): 102% [middle of 13 runs] | viability, T/C (compound 3.16 µM): 102% [middle of 13 runs] | viability, T/C (compound 10 µM): 109% [middle of 13 runs] | IC50 (compound alone, run of 10/31/2023): > 10 µM
